Our source for the Ki values is US12178842B2, “PCSK9 antagonist compounds” (MERCK SHARP & DOHME LLC, priority 2019, dated 2024).

Common to all, as to format: binding
Assay [1] addresses T1, PCSK9 (Homo sapiens, UniProt Q8NBP7).
T1 construct: biotin (biotinylated); purchased
The experiment in a line: PCSK9 Alexa FRET Standard TR-FRET assay. Particulars: Ki calculated from IC50 and KD of AF cyclic peptide Reagent A; 0.5 nM PCSK9, 20 nM AF cyclic peptide; read-out: Alexa FRET Stdt TR-FRET. On the procedure: A solution containing 1 nM biotinylated PCSK9+2.5 nM Lance Streptavidin Europium (Strep-Eu) is made in 50 mM HEPES pH 7.4, 0.15 M NaCl, 5 mM CaCl2, 0.01% BSA, and 0.01% Surfactant P20. A separate solution containing 40 nM of the AlexaFluor tagged cyclic peptide is made in the same buffer system. An Echo is used to transfer 0.750 ul of compound to an assay plate followed by the addition of 15 ul of PCSK9+Stept-Eu and 15 ul of AF peptide. The final assay volume is 30.750 ul containing 0.5 nM PCSK9, 1.25 nM Strep-Eu, and 20 nM AF cyclic peptide. The reaction is incubated at room temperature for at least two hours prior to fluorescence measurements using an Envision Multilabel Reader. IC50 values are determined by fitting data to a sigmoidal dose-response curve using nonlinear regression. Ki is then calculated from the Ic50 and the KD of AF cyclic peptide. Counts (B-counts) of the europium-labeled PCSK9 are followed to observe if compounds are adversely PCSK9. A fall off of the B-counts likely indicates a false positive of inhibition. Data from this procedure is reported as “A=‘numerical value’ (nanomolar)”

Assay [2] deals with T1, PCSK9. The experiment in a line: PCSK9 Alexa FRET Plus TR-FRET assay. On the procedure: A separate solution containing 1920 nM of the AlexaFluor tagged cyclic peptide is made in the same buffer system. […] The reaction is incubated at room temperature for at least two hours prior to fluorescence measurements using an Envision Multilabel Reader. IC50 values are determined by fitting data to a sigmoidal dose-response curve using nonlinear regression. Ki is then calculated from the Ic50 and the KD of AF cyclic peptide. Counts (B-counts) of the europium-labeled PCSK9 are followed to observe if compounds are adversely affecting PCSK9. A fall off of the B-counts is likely indicates a false positive of inhibition. Data from this procedure is reported as “P=‘numerical value’ (nanomolar)”
A general note: In TR-FRET formats the signal depends on donor and acceptor labels being close together.

Assay [3] deals with T1, PCSK9. Nature of the assay: PCSK9 Alexa FRET Ultra TR-FRET assay. On the procedure:
A separate solution containing 1920 nM of the AlexaFluor tagged cyclic peptide is made in the same buffer system. […] The reaction is incubated at room temperature for at least two hours prior to fluorescence measurements using an Envision Multilabel Reader. IC50 values are determined by fitting data to a sigmoidal dose-response curve using nonlinear regression. Ki is then calculated from the Ic50 and the KD of AF cyclic peptide. Counts (B-counts) of the europium-labeled PCSK9 are followed to observe if compounds are adversely affecting PCSK9. A fall off of the B-counts is likely indicates a false positive of inhibition. Data from this procedure is reported as “Ki Ultra=‘numerical value’ (data reported is nanomolar)”

Setting [4] is: Ki calculated from IC50 and KD of AF cyclic peptide Reagent B, 0.5 nM PCSK9, 960 nM AF cyclic peptide, read-out: Alexa FRET Plus TR-FRET.
Where [5] appears, read: Ki Ultra, calculated from IC50 and KD of AF cyclic peptide, 0.5 nM PCSK9, 960 nM AF cyclic peptide, read-out: Alexa FRET Ultra TR-FRET.

pKi: −log10 of the molar value. Some results are limits rather than exact numbers.

T1 sequence (Q8NBP7 153-692): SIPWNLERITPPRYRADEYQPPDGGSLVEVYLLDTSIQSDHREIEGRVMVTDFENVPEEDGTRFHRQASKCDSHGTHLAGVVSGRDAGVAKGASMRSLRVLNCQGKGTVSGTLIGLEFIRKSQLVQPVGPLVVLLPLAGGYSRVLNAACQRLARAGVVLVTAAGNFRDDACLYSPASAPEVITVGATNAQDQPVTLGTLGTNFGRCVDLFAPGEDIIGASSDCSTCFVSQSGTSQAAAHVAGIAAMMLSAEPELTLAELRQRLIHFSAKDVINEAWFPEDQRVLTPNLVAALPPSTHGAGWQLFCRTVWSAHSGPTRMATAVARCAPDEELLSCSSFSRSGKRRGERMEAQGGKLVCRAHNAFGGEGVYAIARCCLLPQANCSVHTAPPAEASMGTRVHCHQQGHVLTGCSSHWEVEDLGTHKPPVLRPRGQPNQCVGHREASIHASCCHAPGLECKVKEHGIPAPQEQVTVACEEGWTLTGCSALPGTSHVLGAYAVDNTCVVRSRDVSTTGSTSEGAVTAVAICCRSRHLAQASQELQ

As to `COc1ccc(C[C@@H]2NC(=O)[C@H]([C@@H](C)O)NC(=O)[C@@H]3[C@@H]4CCN3C(=O)[C@@H]3Cc5cn(c6ccc(F)cc56)CCCCCCN(Cc5ccc(cc5)CCNC(=O)[C@]5(C)CCCN5C2=O)C(=O)CCC(=O)N[C@@H](C)C(=O)N[C@H](CNC(=O)COCCOCCNC(=O)COCCOCCNC(=O)CC[C@H](NC(=O)CC[C@H](NC(=O)CCCCCCCCCCCCCCC(=O)O)C(=O)O)C(=O)O)C(=O)N[C@@H](Cc2cccc(c2)CNC(=O)CO4)C(=O)N3)cc1` [Ex-42], the pKi in assay [1] was > 8.90; in assay [2] (setting [4]) it was > 11.22; in assay [3] (setting [5]) it was 11.00.

`COc1ccc(C[C@@H]2NC(=O)[C@H]([C@@H](C)O)NC(=O)[C@@H]3[C@@H]4CCN3C(=O)[C@@H]3Cc5cn(c6ccc(F)cc56)CCCCCCN(Cc5ccc(cc5)CCNC(=O)[C@]5(C)CCCN5C2=O)C(=O)CCC(=O)N[C@@H](C)C(=O)N[C@H](CNC(=O)CCCCC[N+](C)(C)CCNC(=O)COCCOCCNC(=O)COCCOCCNC(=O)CC[C@H](NC(=O)CCCCCCCCCCCCCCC(=O)O)C(=O)O)C(=O)N[C@@H](Cc2cccc(c2)CNC(=O)CO4)C(=O)N3)cc1` [Example 3]: the pKi in assay [1] was > 8.90; in assay [2], > 11.22; in assay [3] it was 11.30.

On to `COc1ccc(C[C@@H]2NC(=O)[C@H]([C@@H](C)O)NC(=O)[C@@H]3[C@@H]4CCN3C(=O)[C@@H]3Cc5cn(c6ccc(F)cc56)CCCCCCN(Cc5ccc(cc5)CCNC(=O)[C@]5(C)CCCN5C2=O)C(=O)CCC(=O)N[C@@H](C)C(=O)N[C@H](CNC(=O)CCOCCOCC[N+](C)(C)CCNC(=O)Cc2c(C)n(C(=O)c5ccc(Cl)cc5)c5ccc(OC)cc25)C(=O)N[C@@H](Cc2cccc(c2)CNC(=O)CO4)C(=O)N3)cc1` [Ex-52], for which the pKi is > 8.90 in assay [1], > 11.22 in assay [2] (setting [4]) and 12.00 in assay [3] (setting [5]).

On to `COc1ccc(C[C@@H]2NC(=O)[C@H]([C@@H](C)O)NC(=O)C3C4CCN3C(=O)[C@@H]3Cc5cn(c6ccc(F)cc56)CCCCCCN(Cc5ccc(cc5)CCNC(=O)[C@]5(C)CCCN5C2=O)C(=O)CCC(=O)N[C@@H](C)C(=O)N[C@H](CNC(=O)CCOCCOCC[N+](C)(C)CCNC(=O)CCOCCOCC[N+](C)(C)CCNC(=O)COCCOCCNC(=O)COCCOCCNC(=O)CCCCCCCCCCCCCCC(=O)O)C(=O)N[C@@H](Cc2cccc(c2)CNC(=O)CO4)C(=O)N3)cc1` [compound 43], for which the pKi in assay [1] was > 8.90; in assay [2] (setting [4]), > 11.22; in assay [3] (setting [5]), 11.70.

`COc1ccc(C[C@@H]2NC(=O)[C@H]([C@@H](C)O)NC(=O)[C@@H]3[C@@H]4CCN3C(=O)[C@@H]3Cc5cn(c6ccc(F)cc56)CCCCCCN(Cc5ccc(cc5)CCNC(=O)[C@]5(C)CCCN5C2=O)C(=O)CCC(=O)N[C@@H](CNC(=O)COCCOCC[N+](C)(C)CCNC(=O)COCCOCCNC(=O)COCCOCCNC(=O)CC[C@H](NC(=O)CCCCCCCCCCCCCCCCC(=O)O)C(=O)O)C(=O)N[C@H](CNC(=O)CCOCCOCC[N+](C)(C)C)C(=O)N[C@@H](Cc2cccc(c2)CNC(=O)CO4)C(=O)N3)cc1` [Ex-65]: the pKi in assay [1] was > 8.90; in assay [2] (setting [4]) it was > 11.22; in assay [3] (setting [5]), 10.62.

In the case of `COc1ccc(C[C@@H]2NC(=O)[C@H]([C@@H](C)O)NC(=O)[C@@H]3[C@@H]4CCN3C(=O)[C@@H]3Cc5cn(c6ccc(F)cc56)CCCCCCN(Cc5ccc(cc5)CCNC(=O)[C@]5(C)CCCN5C2=O)C(=O)CCC(=O)N[C@@H](C)C(=O)N[C@H](CN(CCC[N+](C)(C)C)C(=O)COCCOCCNC(=O)COCCOCCNC(=O)CC[C@H](NC(=O)CCCCCCCCCCCCCCCCC(=O)O)C(=O)O)C(=O)N[C@@H](Cc2cccc(c2)CNC(=O)CO4)C(=O)N3)cc1` [Ex-17], the pKi is > 8.90 in assay [1], 10.80 in assay [2] (setting [4]) and 10.74 in assay [3] (setting [5]).
